We go through four compounds from patent US20070027120A1, “Methods of using vitamin D compounds in the treatment of myelodysplastic syndromes” (priority 2002, published 2007).

Read-outs that look alike come from different tables or passages of the source.

For data set [1] the following is noted: relative to calcitriol; cited from earlier work.
For data set [2], the system named is MDS. The conditions noted are these: cited from earlier work.
Data set [3] relates to MDS. Particulars: 75 mg/m^2/day subcutaneously for 7 days out of 28; cited from earlier work.
The test system of data set [4] is low risk MDS and refractory anemia unresponsive to erythropoietin. In words: Phase 2 trial of high dose pulse administration of calcitriol. Format: in vivo, human. As for the experimental part: Patients having low risk MDS and refractory anemia unresponsive to erythropoietin were entered into a Phase 2 trial to evaluate the effect of high dose pulse administration of calcitriol. These patients are red blood cell transfusion dependent because of severe anemia. Patients were administered weekly oral calcitriol at a dose of 45 μg for 20 consecutive weeks. The calcitriol was formulated in a composition containing the following excipients with the amount given in approximate percentage by weight: 65% MIGLYOL 812N®, 30% […] 44/14®, 5% vitamin-E TPGS and about 0.05% each of butylated hydroxytoluene (BHT) and butylated hydroxyanisole (BHA).

A further data set concerns refractory malignancies. The conditions noted are these: weekly HDPA; cited from earlier work.
For data set [5], the system named is MDS. The conditions noted are these: cited from earlier work. The source holds these as a separate data set.
Where [6] appears, read: Patient #1, 45 μg oral weekly for 20 weeks.
Setting [7] is: Patient #3, 45 μg oral weekly for 20 weeks.

Take `C=C1/C(=C\C=C2/CCC[C@]3(C)[C@@H]([C@H](C)/C=C/[C@@H](O)C4CC4)CC[C@@H]23)C[C@@H](O)C[C@@H]1O` [calcipotriol]: the calcemic index entry in data set [1] is listed as “about 0.01”.

Consider “EPO: erythropoietin, hematopoietic growth factor”, for which the subjects who respond result is “about 40%” in the data set on MDS [2] (EPO administered with G-CSF) and “about 20%” in the data set on MDS [2] (EPO alone). Further, the rate of responsiveness was 21% in the data set on MDS [2] (refractory anemia and refractory anemia with ring sideroblasts); 8% in the data set with MDS [2] (refractory anemia with excess blasts).

As to `Nc1ncn([C@@H]2O[C@H](CO)[C@@H](O)[C@H]2O)c(=O)n1` [5-azacytidine], in the data set with MDS [3], the “patients with a complete response” value is listed as 7% and the “patients with at least a partial response” value is given as about 60%.

On to `C=C1/C(=C/C=C2/CCC[C@@]3(C)C2CC[C@@H]3[C@H](C)CCCC(C)(C)O)C[C@@H](O)C[C@@H]1O` (stereo in doubt) [calcitriol, 1α,25-dihydroxycholecalciferol], for which, in data set [4] (setting [6]), the protocol defined response result was “minor response (A minor erythroid responder is a subject with a baseline hemoglobin of less than 11 g/dL who experiences an increase of 1 to 2 g/dL from baseline)” and the “rise in hemoglobin as compared to baseline” value was “more than one”. Further, the “decrease in required red blood cell transfusions as compared to baseline” value in data set [4] (Patient #2, 45 μg oral weekly for 20 weeks) came out at 50%. In data set [4] (setting [7]), the protocol defined response entry is on record as “major response (A major erythroid responder is a subject with a baseline hemoglobin of less than 11 g/dL who experiences an increase of greater than or equal to 2 g/dL from the baseline)” and the “rise in hemoglobin as compared to baseline” value is reported as “more than two”. Also, in the data set with refractory malignancies, the dose-limiting toxicity entry was “no dose-limiting toxicity” and the “mean peak calcitriol levels” value is reported as “within the therapeutic range”. Moreover, the “dose at which hypercalcemia was induced” value with MDS [5] (daily administration (Koeffler et al.)) is 2 µg/day. The “maximum dose administered without hypercalcemia” value with MDS [5] (subjects with MDS (Mellibovsky et al.)) was 0.75 µg/day. Also, the calcemic index in data set [1] is recorded as 1.
